Values of other authors in paper PMC5488687 (The Biochemical journal, 2016).
Where two headings read alike, the source gives them in different places.

Assays:
[1] = system: cells with amplified centrosomes
[2] = system: neuroblastoma N1E-115 cells; conditions: read-out: IC50, cell viability of N1E-115 cells
[3] = system: normal human dermal fibroblasts (NHDF); conditions: read-out: IC50, cell viability of NHDF cells
[4] = system: neuroblastoma N1E-115 cells
[5] = system: normal human dermal fibroblasts (NHDF)

IC50 (KIFC1; read-out: IC50, MT-stimulated KIFC1 ATPase activity) [µM] | IC50 (KIFC1; read-out: IC50, KIFC1 ATPase activity) [µM] | IC50 [2] [µM] | Compound | multipolar spindle formation and mitotic catastrophe [1] | binding to KIFC1/MT complex versus KIFC1 or MT alone (KIFC1/MT complex) | IC50 [3] [µM] | multipolar spindle formation in N1E-115 cells [4] | effect on bipolar spindle formation in NHDF [5]
0.3 | – | – | CCCc1cc(C(=O)N[C@H](Cc2ccc(-c3cccc(OC(F)(F)F)c3)nc2)C(=O)N[C@@H]2CCNC2)sc1C [AZ82] | triggered multipolar spindle formation and mitotic catastrophe | bound specifically to KIFC1/MT complex but did not interact directly with KIFC1 or MT | – | – | –
– | 75 | 86 | O=C(O)c1cc(I)ccc1NC(=O)[C@H](Cc1ccccc1)NCc1ccccc1 [CW069] | – | – | 187 | increased multipolar spindle formation | no effects
